Assay results from US12213959B2, “Use of 3-O-sulfamoyloxy-7β-methyl-d-homo-6-oxaestra-1,3,5(10),8(9)-tetraen-17a-one to treat breast cancer” (priority 2018, dated 2025).
Several values for one entry are separate records, joined by “and”; a condition that tells them apart may be missing. Identical values can stand only once. Marks after values point to notes of the source that are not given here.

Tested on: breast tumours in FBV/N female mice, transgenic for HER-2/neu
Experiment: Antitumour activity on breast tumours of HER-2/neu transgenic mice
Type: in vivo
Settings: for antitumour activity compared with Tamoxifen: FVB mice transgenic for HER-2/neu with breast tumours; for Average tumor volume, % of change to the initial value / Average total tumour volume, % of change to the initial value: Day 28 vs Day 0; for Absolute number of new tumours / frequency of stabilisations of tumours present at initiation of treatment: end of observation
Protocol: The study was carried out on female FVB mice transgenic for HER-2/neu of the conventional category, the strain being obtained from the mouse bank Charles River Laboratories (Italy).
Duration of the administration course was 27-28 days.
The control groups were given the olive oil (placebo).
The macroscopically detectable tumor nodes were measured in the animals once per week during the weighing process.

[1] = medicament 2 mg/kg daily i.g., Day 0
[2] = medicament 2 mg/kg daily i.g., Day 7
[3] = medicament 2 mg/kg daily i.g., Day 14
[4] = medicament 2 mg/kg daily i.g., Day 21
[5] = medicament 2 mg/kg daily i.g., Day 28
[6] = medicament 20 mg/kg daily i.g., Day 0
[7] = medicament 20 mg/kg daily i.g., Day 7
[8] = medicament 20 mg/kg daily i.g., Day 14
[9] = medicament 20 mg/kg daily i.g., Day 21
[10] = medicament 20 mg/kg daily i.g., Day 28

## C[C@H]1Oc2cc(OS(N)(=O)=O)ccc2C2=C1[C@@H]1CCCC(=O)[C@@]1(C)CC2 [medicament, 3-O-sulfamoyloxy-7β-methyl-O-homo-6-oxaestra-1,3,5(10),8(9)-tetraen]
  antitumour activity compared with Tamoxifen: not lower than that of the reference durg, Tamoxifen
Listed as agent
  antitumour activity compared with Tamoxifen: more effectively than clinically used Tamoxifen
Dose range 2.0, 20.0 and 100.0 mg/kg
  antitumour effect on the model: no pronounced antitumour effect
Medicament 2 mg/kg
  Average volume of new tumours at the end of the observation period: 0.33 cm^3
  Absolute number of new tumours: 30
  frequency of stabilisations of tumours present at initiation of treatment: 5%
Medicament 2.0 mg/kg
  effect on frequency of stabilisations or volume of newly developing tumours: had no effect
  relative change in the total volume of tumours versus control values: greater than the control values
[1]
  Average volume of tumors existing at the beginning of the experiment (M): 0.27 cm^3
  Relative change of the average total volume of tumours to that of Day −1 (M): 0%
Medicament 2.0 mg/kg daily i.g., Day 0
  Average total volume of tumours in mice (M): 1.24 cm^3
[2]
  Average volume of tumors existing at the beginning of the experiment (M): 0.42 cm^3
  Relative change of the average total volume of tumours to that of Day −1 (M): 59%
Medicament 2.0 mg/kg daily i.g., Day 7
  Average total volume of tumours in mice (M): 1.91 cm^3
[3]
  Average volume of tumors existing at the beginning of the experiment (M): 0.6 cm^3
  Relative change of the average total volume of tumours to that of Day −1 (M): 131%
Medicament 2.0 mg/kg daily i.g., Day 14
  Average total volume of tumours in mice (M): 2.71 cm^3
[4]
  Average volume of tumors existing at the beginning of the experiment (M): 0.77 cm^3
  Relative change of the average total volume of tumours to that of Day −1 (M): 210%
Medicament 2.0 mg/kg daily i.g., Day 21
  Average total volume of tumours in mice (M): 3.50* cm^3
[5]
  Average volume of tumors existing at the beginning of the experiment (M): 1.11 cm^3
  Relative change of the average total volume of tumours to that of Day −1 (M): 347*** %
Medicament 2.0 mg/kg daily i.g., Day 28
  Average total volume of tumours in mice (M): 5.04 cm^3
Medicament 2 mg/kg daily i.g.
  Average tumor volume, % of change to the initial value: 311%
Medicament 2.0 mg/kg daily i.g.
  Average total tumour volume, % of change to the initial value: 307%
Medicament 2 mg/kg, vs Control-3, Day 0
  TGI (average tumor volume): 29%
Medicament 2.0 mg/kg, vs Control-3, Day 0
  TGI (average total tumour volume): 45%
Medicament 2 mg/kg, vs Control-3, Day 7
  TGI (average tumor volume): 16%
Medicament 2.0 mg/kg, vs Control-3, Day 7
  TGI (average total tumour volume): 37%
Medicament 2 mg/kg, vs Control-3, Day 14
  TGI (average tumor volume): 14%
Medicament 2.0 mg/kg, vs Control-3, Day 14
  TGI (average total tumour volume): 35%
Medicament 2 mg/kg, vs Control-3, Day 21
  TGI (average tumor volume): 9%
Medicament 2.0 mg/kg, vs Control-3, Day 21
  TGI (average total tumour volume): 31%
Medicament 2 mg/kg, vs Control-3, Day 28
  TGI (average tumor volume): −14%
Medicament 2.0 mg/kg, vs Control-3, Day 28
  TGI (average total tumour volume): 13%
Medicament 20 mg/kg
  Average volume of new tumours at the end of the observation period: 0.19±0.04 cm^3 and 0.19 cm^3
  Absolute number of new tumours: 22
  frequency of stabilisations of tumours present at initiation of treatment: 9%
[6]
  Average total volume of tumours in mice (M): 0.41 cm^3
  Average volume of tumors existing at the beginning of the experiment (M): 0.18 cm^3
Medicament 20.0 mg/kg daily i.g., Day 0
  Relative change of the average total volume of tumours to that of Day −1 (M): 0%
[7]
  Average total volume of tumours in mice (M): 0.62 cm^3
  Average volume of tumors existing at the beginning of the experiment (M): 0.28 cm^3
Medicament 20.0 mg/kg daily i.g., Day 7
  Relative change of the average total volume of tumours to that of Day −1 (M): 55%
[8]
  Average total volume of tumours in mice (M): 0.94 cm^3
  Average volume of tumors existing at the beginning of the experiment (M): 0.43 cm^3
Medicament 20.0 mg/kg daily i.g., Day 14
  Relative change of the average total volume of tumours to that of Day −1 (M): 145%
[9]
  Average total volume of tumours in mice (M): 1.18 cm^3
  Average volume of tumors existing at the beginning of the experiment (M): 0.54 cm^3
Medicament 20.0 mg/kg daily i.g., Day 21
  Relative change of the average total volume of tumours to that of Day −1 (M): 209** %
[10]
  Average total volume of tumours in mice (M): 1.22 cm^3
  Average volume of tumors existing at the beginning of the experiment (M): 0.55 cm^3
Medicament 20.0 mg/kg daily i.g., Day 28
  Relative change of the average total volume of tumours to that of Day −1 (M): 227*** %
Medicament 20 mg/kg daily i.g.
  Average total tumour volume, % of change to the initial value: 198%
  Average tumor volume, % of change to the initial value: 206%
